{"source": "patent US9962398B2", "about": "“Sulfonamide compounds for inhibition of metastatic tumor growth” (Welichem Biotech Inc., priority 2010, dated 2018)", "key": {"hCA IX [1]": {"molecular_target": "T1, hCA IX (Homo sapiens (Human), UniProt Q16790)", "assay": "biochemical"}, "hCA XII": {"molecular_target": "hCA XII (Homo sapiens (Human), UniProt O43570)", "sequence (O43570 25-354)": "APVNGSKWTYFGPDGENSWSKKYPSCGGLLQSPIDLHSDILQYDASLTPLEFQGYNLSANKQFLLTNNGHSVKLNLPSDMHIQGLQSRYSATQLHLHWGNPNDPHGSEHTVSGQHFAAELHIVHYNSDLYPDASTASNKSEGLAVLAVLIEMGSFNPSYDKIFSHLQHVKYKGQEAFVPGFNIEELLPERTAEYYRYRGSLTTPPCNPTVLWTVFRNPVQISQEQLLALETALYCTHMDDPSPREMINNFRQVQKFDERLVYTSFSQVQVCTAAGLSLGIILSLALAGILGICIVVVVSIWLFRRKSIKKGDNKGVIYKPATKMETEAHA", "conditions": "read-out: Ki (nM) hCA XII; Table 3"}, "hCA II": {"molecular_target": "hCA II (Homo sapiens (Human), UniProt P00918)", "conditions": "read-out: Ki (nM) hCA II; Table 3"}, "hCA IX [2]": {"molecular_target": "T1, hCA IX", "conditions": "read-out: Ki (nM) hCA IX; Table 3"}, "[3]": {"tested_on": "MDA-MB-231 LM2-4Luc+ cells", "conditions": "in vivo", "quoted_text": "For studies involving CAIX depletion, 1×10^7 MDA-MB-231 cells suspended in a 50% Matrigel/PBS solution were implanted subcutaneously in 6-8 week-old female NOD.CB17-prkdc^scid/J mice. […] Therapy was initiated when the tumors reached 200 mm^3. For both models, tumor growth was monitored by caliper measurement.\nThe initiation and termination of inhibitor treatment is indicated. n=8/group. *P<0.03, **P<0.001."}, "4T1 mammary tumor cells": {"tested_on": "4T1 mammary tumor cells", "assay": "Experimental metastasis assay, intravenous 4T1 cells, bioluminescence", "assay_type": "in vivo, mouse", "conditions": "tail vein 4T1 cells, BALB/c mice, daily i.p. for 5 days, imaged 24 h after final dose", "protocol": "For studies involving genetic depletion of CAIX, 4T1 or 67NR cells (5×10^5) were injected directly into the tail vein of 7-9 week-old female BALB/c mice. Mice were imaged once per week to follow the growth of metastases. Mice were euthanized 20 days post-injection and lungs were resected for further analysis. Tumor burden in the lung was quantified by manually counting nodules visible on the lung surface. For studies using sulphonamide inhibitors, 4T1 cells (1-5×10^5) were injected as described above (Pacchiano et al, (2011) J Med Chem 54:1896-1902).\nAnimals were treated 24 hours post inoculation of cells. Three doses were administered by i.p. injection over 6 days and the mice were imaged 24 hours following the third dose of inhibitor. […] Quantification of tumor-derived bioluminescence is shown in 12C. Regions of interest were positioned around metastatic foci and total flux (photons/sec) at the mouse surface was calculated. Data are reported as the mean±s.e.m. N=4 per group. *P<0.05.\n4T1 cells were injected directly into the tail vein of BALB/c mice. […] Vehicle and inhibitor were administered by i.p. injection. Shown are representative images of tumor-cell derived bioluminescence in control and inhibitor-treated animals."}, "MDA-231 LM2-4 Luc+ cells": {"tested_on": "MDA-231 LM2-4 Luc+ cells", "assay": "3D Matrigel invasion assay in hypoxia", "assay_type": "cell-based, human", "conditions": "4 days in hypoxia", "protocol": "A 3D “on-top” matrigel culture assay was performed as described previously (Lee et al, (2007) Nat Methods 4:359-365). […] Cells were allowed to attach for 45 minutes with side-to-side agitation every 10-15 minutes to prevent clumping of cells in the center of the well. An additional 100 μl/well media containing 10% matrigel was added to the cells and cultures were incubated in hypoxia for 4 days. Images were acquired and cultures were fixed for TUNEL using the “whole culture fixation” methodology outlined in Lee et al, (2007) Nat Methods 4:359-365).\nTreatment with novel sulfonamide inhibitors of CAIX attenuates hypoxia-induced invasion of human breast cancer cells grown in 3D Matrigel™ cultures (FIG. 16). Cells were cultured in 3D “on-top” Matrigel™ assays for 4 days in hypoxia in the presence of inhibitors. DMSO-treated cell cultures served as controls. The percentage concentration of DMSO and molar concentration of inhibitors are indicated. Representative phase contrast images are shown."}, "[4]": {"tested_on": "MDA-MB-231 LM2-4luc+ tumors", "assay": "ESA+ cancer stem cell population in orthotopic xenograft tumors (FACS)", "assay_type": "in vivo, human", "conditions": "NOD/SCID mice, 38 mg/kg daily i.p., vs vehicle-treated tumors", "from_the_text": "MDA-MB-231 LM2-4^luc+ were implanted orthotopically into NOD/SCID mice. […] (A) Primary tumors were removed, dissociated and ESA+ cell population assessed by FACS analysis. […] (B) Data shown are the mean changes in ESA+ cells±SEM, from 3 mice. **P<0.0224."}}, "note": "Like-named read-outs stand apart in the source and are kept apart here.", "data": [{"smiles": "NS(=O)(=O)c1cccc(NC(=O)Nc2c(F)c(F)c(F)c(F)c2F)c1", "note": "[MST-133, 3-(3-(Perfluorophenyl)ureido)benzenesulfonamide]", "values": [{"measurement": "Ki", "setting": "hCA IX [1]", "value": 4.2, "unit": "nM"}]}, {"smiles": "NS(=O)(=O)c1ccc(NC(=O)Nc2cccc(Cl)c2)cc1", "note": "[MST-143, 4-(3-(3′-chlorophenyl)ureido)benzenesulfonamide]", "values": [{"measurement": "Ki", "setting": "hCA XII", "value": 8.5, "unit": "nM"}, {"measurement": "Ki", "setting": "hCA II", "value": 10, "unit": "nM"}, {"measurement": "Ki", "setting": "hCA IX [2]", "value": 8.4, "unit": "nM"}]}, {"smiles": "NS(=O)(=O)c1ccc(NC(=O)Nc2ccc(F)cc2)cc1", "note": "[MST-104, 4-{[(4′-Fluorophenyl)carbamoyl]amino}benzenesulfonamide]", "values": [{"measurement": "tumor growth", "setting": "[3]", "value": "significant, dose-dependent inhibition of tumor growth"}, {"measurement": "formation of metastases (tumor-derived bioluminescence)", "setting": "4T1 mammary tumor cells", "value": "statistically significant decrease in the formation of metastases"}, {"measurement": "hypoxia-induced invasion", "setting": "MDA-231 LM2-4 Luc+ cells", "value": "inhibit invasion"}, {"measurement": "ESA+ cell population", "setting": "[4]", "value": "significantly reduced ESA+ cell population"}]}]}
